Values of other authors, collected in paper PMC2699040 (European Journal of Immunology, 2007).

Columns and labels:
[1] = tested on: CTL line specific for the influenza epitope KTGGAIYKR; details: alanine-substituted at all but a single non-MHC anchor position; ref [14]; cited from earlier work
[2] = tested on: SC21 peripheral blood lymphocytes; details: adapted IFN-γ ELISPOT, directly ex vivo; ref [18]; cited from earlier work

Sequence | Recognition by CTL line [1] | HLA-A68-restricted response / antigenicity [2]
ATAAAIAAR | recognise efficiently | 
FHCQVCFTTKALGISYGRKK [Tat4 peptide] |  | An HLA-A68-restricted response
